Experiments:
[1] = system: α-isomaltosylglucosaccharide-forming enzyme; assay: Action on saccharides as substrates (TLC), enzyme of C9 strain; assay type: biochemical, Bacillus globisporus C9 strain; design: key: −: it showed no change; +: it showed a slight reduction of the color spot of the substrate and the formation of other reaction product; ++: it showed a high reduction of the color spot of the substrate and the formation of other reaction product; +++: it showed a substantial disappearance of the substrate spot and the formation of other reaction product; conditions: two units/g substrate, substrate 2% (w/v), 30° C., pH 6.0, 24 hours
Description: (§1) To examine the saccharides in the supernatant, they were separated by developing twice on silica gel thin-layer chromatography (abbreviated as “TLC” hereinafter) using, as a developer, a mixture solution of n-butanol, pyridine, and water (=6:4:1 by volume), and, as a thin-layer plate, “[…]™ 60”, an aluminum plate (20×20 cm) for TLC commercialized by Merck & Co., Inc., Rahway, USA. The coloration of the separated total sugars by the sulfuric acid-methanol method and that of the reducing saccharides by the diphenylamine-aniline method detected a non-reducing saccharide positive at an Rf value of about 0.31 on the former detection method but negative on the latter detection method.
(§2) It was tested whether any saccharides can be used as substrates for α-isomaltosylglucosaccharide-forming enzyme. For the purpose, a solution of maltose, maltotriose, maltotetraose, maltopentaose, maltohexaose, maltoheptaose, isomaltose, isomaltotriose, panose, isopanose, α,α-trehalose, kojibiose, nigerose, neotrehalose, cellobiose, gentibiose, maltitol, maltotriitol, lactose, sucrose, erlose, selaginose, maltosyl glucoside, or isomaltosyl glucoside was prepared.
(§3) To each of the above solutions was added two units/g substrate of a purified specimen of α-isomaltosylglucosaccharide-forming enzyme from either Bacillus globisporus C9 strain obtained by the method in Experiment 4-2, Bacillus globisporus C11 strain obtained by the method in Experiment 7-2, Bacillus globisporus N75 strain obtained by the method in Experiment 11-2, or Arthrobacter globiformis A19 strain obtained by the method in Experiment 15-2, and the resulting each solution was adjusted to give a substrate concentration of 2% (w/v) and incubated at 30° C. and pH 6.0 for 24 hours, except for using pH 8.4 for the enzyme from Arthrobacter globiformis A19 strain. The enzyme solutions before and after the enzymatic reactions were respectively analyzed on TLC disclosed in Experiment 1 to confirm whether the enzymes acted on these substrates.

[2] = system: α-isomaltosylglucosaccharide-forming enzyme; assay: Action on saccharides as substrates (TLC), enzyme of C11 strain; assay type: biochemical, Bacillus globisporus C11 strain; design: key: −: it showed no change; +: it showed a slight reduction of the color spot of the substrate and the formation of other reaction product; ++: it showed a high reduction of the color spot of the substrate and the formation of other reaction product; +++: it showed a substantial disappearance of the substrate spot and the formation of other reaction product; conditions: two units/g substrate, substrate 2% (w/v), 30° C., pH 6.0, 24 hours
Description: as §1, §2, §3

[3] = system: α-isomaltosylglucosaccharide-forming enzyme; assay: Action on saccharides as substrates (TLC), enzyme of N75 strain; assay type: biochemical, Bacillus globisporus N75 strain; design: key: −: it showed no change; +: it showed a slight reduction of the color spot of the substrate and the formation of other reaction product; ++: it showed a high reduction of the color spot of the substrate and the formation of other reaction product; +++: it showed a substantial disappearance of the substrate spot and the formation of other reaction product; conditions: two units/g substrate, substrate 2% (w/v), 30° C., pH 6.0, 24 hours
Description: as §1, §2, §3

[4] = system: α-isomaltosylglucosaccharide-forming enzyme; assay: Action on saccharides as substrates (TLC), enzyme of A19 strain; assay type: biochemical, Arthrobacter globiformis A19 strain; design: key: −: it showed no change; +: it showed a slight reduction of the color spot of the substrate and the formation of other reaction product; ++: it showed a high reduction of the color spot of the substrate and the formation of other reaction product; +++: it showed a substantial disappearance of the substrate spot and the formation of other reaction product; conditions: two units/g substrate, substrate 2% (w/v), 30° C., pH 8.4, 24 hours
Description: as §1, §2, §3

[5] = system: α-isomaltosylglucosaccharide-forming enzyme; assay: Transfer-acceptor specificity, enzyme of C9 strain; assay type: biochemical, Bacillus globisporus C9 strain; conditions: acceptor 1.6%, PINE-DEX #100 donor 4%, one unit/g donor, 30° C., pH 6.0, 24 hours
Procedure: (§4) Using various saccharides, it was tested whether the saccharides were used as transferring-acceptors for α-isomaltosylglucosaccharide-forming enzyme. A solution of D-glucose, D-xylose, L-xylose, D-galactose, D-fructose, D-mannose, D-arabinose, D-fucose, D-psicose, L-sorbose, L-rhamnose, methyl-α-glucopyranoside, methyl-β-glucopyranoside, N-acetyl-glucosamine, sorbitol, α,α-trehalose, isomaltose, isomaltotriose, cellobiose, gentibiose, glycerol, maltitol, lactose, sucrose, α-cyclodextrin, β-cyclodextrin, γ-cyclodextrin, or L-ascorbic acid was prepared. To each solution with a saccharide concentration of 1.6% was added “PINE-DEX #100”, a partial starch hydrolyzate, as a saccharide donor, to give a concentration of 4%, and admixed with one unit/g saccharide donor, d.s.b., of either of purified specimens of α-isomaltosylglucosaccharide-forming enzyme from Bacillus globisporus C9 strain obtained by the method in Experiment 4-2, Bacillus globisporus C11 strain obtained by the method in Experiment 7-2, Bacillus globisporus N75 strain obtained by the method in Experiment 11-2, or Arthrobacter globiformis A19 strain obtained by the method in Experiment 15-2, and incubated at 30° C. and pH 6.0 for 24 hours, except that pH 8.4 was used for the enzyme from Arthrobacter globiformis A19 strain. The reaction mixtures of the post-enzymatic reactions were analyzed on gas chromatography (abbreviated as “GLC” hereinafter) for monosaccharides and disaccharides as acceptors, and on HPLC for trisaccharides as acceptors to confirm whether these saccharides could be used as the transfer acceptors of the above enzymes. In the case of performing GLC, the following apparatuses and conditions were used: GLC apparatus, “GC-16A” commercialized by Shimadzu Corporation, Tokyo, Japan; column, a stainless-steel column, 3 mm in diameter and 2 m in length, packed with 2% “SILICONE OV-17/CHROMOSOLV W”, commercialized by GL Sciences Inc., Tokyo, Japan; carrier gas, nitrogen gas at a flow rate of 40 ml/min under temperature conditions of increasing from 160° C. to 320° C. at an increasing temperature rate of 7.5° C./min; and detection, a hydrogen flame ionization detector. In the case of performing HPLC analysis, the following apparatuses and conditions were used: HPLC apparatus, “CCPD” commercialized by Tosoh Corporation, Tokyo, Japan; column, “ODS-AQ-303” commercialized by YMC Co., Ltd., Tokyo, Japan; eluent, water at a flow rate of 0.5 ml/min; and detection, a differential refractometer.

[6] = system: α-isomaltosylglucosaccharide-forming enzyme; assay: Transfer-acceptor specificity, enzyme of C11 strain; assay type: biochemical, Bacillus globisporus C11 strain; conditions: acceptor 1.6%, PINE-DEX #100 donor 4%, one unit/g donor, 30° C., pH 6.0, 24 hours
Procedure: as §4

[7] = system: α-isomaltosylglucosaccharide-forming enzyme; assay: Transfer-acceptor specificity, enzyme of N75 strain; assay type: biochemical, Bacillus globisporus N75 strain; conditions: acceptor 1.6%, PINE-DEX #100 donor 4%, one unit/g donor, 30° C., pH 6.0, 24 hours
Procedure: as §4

[8] = system: α-isomaltosylglucosaccharide-forming enzyme; assay: Transfer-acceptor specificity, enzyme of A19 strain; assay type: biochemical, Arthrobacter globiformis A19 strain; conditions: acceptor 1.6%, PINE-DEX #100 donor 4%, one unit/g donor, 30° C., pH 8.4, 24 hours
Procedure: as §4

In the case of `OC[C@H]1O[C@@](CO)(O[C@H]2O[C@H](CO)[C@@H](O)[C@H](O)[C@H]2O)[C@@H](O)[C@@H]1O` [Sucrose, sucrose], the “Enzymatic action, Enzyme of C9 strain” value [1] is reported as “−”, the “Enzymatic action, Enzyme of C11 strain” value [2] is reported as “−” and the “Enzymatic action, Enzyme of N75 strain” value [3] is reported as “−”. The “Enzymatic action, Enzyme of A19 strain” value [4] was “−”, the “Product of transferring reaction, Enzyme of C9 strain” value (from here on “Product … of C9 strain”) [5] was “++ (a saccharide-transferred product was detected in an amount over ten percent through transfer reaction to acceptor)” and the “Product of transferring reaction, Enzyme of C11 strain” value (“Product … of C11 strain” for short) [6] was “++ (a saccharide-transferred product was detected in an amount over ten percent through transfer reaction to acceptor)”. For the same molecule, the “Product of transferring reaction, Enzyme of N75 strain” value (from here on “Product … of N75 strain”) [7] was “++ (a saccharide-transferred product was detected in an amount over ten percent through transfer reaction to acceptor)” and the “Product of transferring reaction, Enzyme of A19 strain” value (from here on “Product … of A19 strain”) [8] was “++ (a saccharide-transferred product was detected in an amount over ten percent through transfer reaction to acceptor)”.

With `OC[C@H]1O[C@H](OC[C@H]2O[C@H](OC[C@H]3OC(O)[C@H](O)[C@@H](O)[C@@H]3O)[C@H](O)[C@@H](O)[C@@H]2O)[C@H](O)[C@@H](O)[C@@H]1O` (stereo partly shown) [Isomaltotriose, isomaltotriose] the “Enzymatic action, Enzyme of C9 strain” value [1] was “−”, the “Enzymatic action, Enzyme of C11 strain” value [2] was “−” and the “Enzymatic action, Enzyme of N75 strain” value [3] was “−”. The “Enzymatic action, Enzyme of A19 strain” value [4] was “−”, the “Product … of C9 strain” value [5] was “++ (a saccharide-transferred product was detected in an amount over ten percent through transfer reaction to acceptor)” and the “Product … of C11 strain” value [6] was “++ (a saccharide-transferred product was detected in an amount over ten percent through transfer reaction to acceptor)”. The “Product … of N75 strain” value [7] was “++ (a saccharide-transferred product was detected in an amount over ten percent through transfer reaction to acceptor)” and the “Product … of A19 strain” value [8] was “± (a saccharide-transferred product was detected in an amount less than one percent through transfer reaction to acceptor)”.

For `OC[C@H]1O[C@@H](OC[C@H]2OC(O)[C@H](O)[C@@H](O)[C@@H]2O)[C@H](O)[C@@H](O)[C@@H]1O` (stereo partly shown) [Gentibiose, gentibiose], the “Enzymatic action, Enzyme of C9 strain” value [1] was “−”, the “Enzymatic action, Enzyme of C11 strain” value [2] was “−” and the “Enzymatic action, Enzyme of N75 strain” value [3] was “−”. For the same molecule, the “Enzymatic action, Enzyme of A19 strain” value [4] was “−”, the “Product … of C9 strain” value [5] was “++ (a saccharide-transferred product was detected in an amount over ten percent through transfer reaction to acceptor)” and the “Product … of C11 strain” value [6] was “++ (a saccharide-transferred product was detected in an amount over ten percent through transfer reaction to acceptor)”. The “Product … of N75 strain” value [7] was “++ (a saccharide-transferred product was detected in an amount over ten percent through transfer reaction to acceptor)” and the “Product … of A19 strain” value [8] was “+ (a saccharide-transferred product was detected in an amount over one percent but less than 10% through transfer reaction to acceptor)”.

In the case of `OC[C@H]1O[C@H](O[C@H]2O[C@H](CO)[C@@H](O)[C@H](O)[C@H]2O)[C@H](O)[C@@H](O)[C@@H]1O` [Trehalose, α,α-trehalose], the “Enzymatic action, Enzyme of C9 strain” value [1] is reported as “−”, the “Enzymatic action, Enzyme of C11 strain” value [2] is reported as “−” and the “Enzymatic action, Enzyme of N75 strain” value [3] is reported as “−”. The “Enzymatic action, Enzyme of A19 strain” value [4] was “−”, the “Product … of C9 strain” value [5] was “++ (a saccharide-transferred product was detected in an amount over ten percent through transfer reaction to acceptor)” and the “Product … of C11 strain” value [6] was “++ (a saccharide-transferred product was detected in an amount over ten percent through transfer reaction to acceptor)”. The “Product … of N75 strain” value [7] was “++ (a saccharide-transferred product was detected in an amount over ten percent through transfer reaction to acceptor)” and the “Product … of A19 strain” value [8] was “++ (a saccharide-transferred product was detected in an amount over ten percent through transfer reaction to acceptor)”.

For `O=C[C@H](O)[C@@H](O)[C@H](O[C@@H]1O[C@H](CO)[C@@H](O)[C@H](O)[C@H]1O)[C@H](O)CO` [Cellobiose, cellobiose], the “Enzymatic action, Enzyme of C9 strain” value [1] was “−”, the “Enzymatic action, Enzyme of C11 strain” value [2] was “−” and the “Enzymatic action, Enzyme of N75 strain” value [3] was “−”. The “Enzymatic action, Enzyme of A19 strain” value [4] was “−”, the “Product … of C9 strain” value [5] was “++ (a saccharide-transferred product was detected in an amount over ten percent through transfer reaction to acceptor)” and the “Product … of C11 strain” value [6] was “++ (a saccharide-transferred product was detected in an amount over ten percent through transfer reaction to acceptor)”. For the same molecule, the “Product … of N75 strain” value [7] was “++ (a saccharide-transferred product was detected in an amount over ten percent through transfer reaction to acceptor)” and the “Product … of A19 strain” value [8] was “++ (a saccharide-transferred product was detected in an amount over ten percent through transfer reaction to acceptor)”.

From patent publication US7592160B2, “Processes for producing isomaltose and isomaltitol and use thereof” (Kabushiki Kaisha Hayashibara Seibutsu Kagaku Kenkyujo, priority 2001, dated 2009)
